In US20030018061A1, “Novel remedies with the use of beta 3 agonist” (priority 2000, published 2003):

What was measured:
[1] = test system: Mice; experiment: Antilipemic effect (II): plasma triglyceride in mice, bezafibrate and β3 agonist; format: in vivo; conditions: oral, 2 weeks; administered solely: BEZ 3 mg/kg; compound c, d 0.3 mg/kg; e, g 3 mg/kg; h, i 1 mg/kg
Method: Mice were orally administered with bezafibrate (BEZ: 3 mg/kg), a β3 agonist (compound c: 0.3 mg/kg; compound d: 0.3 mg/kg; compound e: 3 mg/kg; compound g: 3 mg/kg; compound h: 1 mg/kg; compound i: 1 mg/kg), or BEZ and a β3 agonist (compound c, compound d, compound e, compound g, compound h, and compound i) in combination (each dosage was the same as the aforementioned) for 2 weeks. Blood was collected thereafter, and the amount of triglyceride contained in blood plasma was measured.

[2] = test system: Genetically diabetic mice; experiment: Antidiabetic effect (IV): genetically diabetic mice, acarbose and β3 agonist; format: in vivo; conditions: oral, 2 weeks; ACA 1 mg/kg; compound c, d 0.3 mg/kg; e, g 3 mg/kg; h, i 1 mg/kg; alone or combined
Method: Genetically diabetic mice were orally administered with acarbose (ACA: 1 mg/kg), a β3 agonist (compound c: 0.3 mg/kg; compound d: 0.3 mg/kg; compound e: 3 mg/kg; compound g: 3 mg/kg; compound h: 1 mg/kg; compound i: 1 mg/kg), or ACA and a β3 agonist (compound c, compound d, compound e, compound g, compound h, and compound i) in combination (each dosage was the same as the aforementioned) for 2 weeks. Blood was collected thereafter, and the amount of glucose contained in blood plasma was measured.

[3] = test system: Mice induced with obesity by feeding with a high fat diet; experiment: Antiobestic effect (II): body weight of high fat diet obese mice, orlistat and β3 agonist; format: in vivo; conditions: oral, 2 weeks; orlistat 1 mg/kg; compound c, d 0.3 mg/kg; e, g 3 mg/kg; h, i 1 mg/kg; alone or combined at same doses
Method: (§1) Mice induced with obesity by feeding with a high fat diet for 2 months were orally administered with orlistat (1 mg/kg), a β3 agonist (compound c: 0.3 mg/kg; compound d: 0.3 mg/kg; compound e: 3 mg/kg; compound g: 3 mg/kg; compound h: 1 mg/kg; compound i: 1 mg/kg), or orlistat and a β3 agonist (compound c, compound d, compound e, compound g, compound h, and compound i) in combination (each dosage was the same as the aforementioned) for 2 weeks and bred, and body weight was measured.

[4] = test system: Mice fasted overnight, glucose loaded; experiment: Antidiabetic effect (II): plasma glucose after glucose loading in fasted mice, glibenclamide and β3 agonist; format: in vivo; conditions: 1 hour after glucose load (1 g/kg s.c.), oral GLI 10 mg/kg, compound a 10 mg/kg, d 0.3 mg/kg, e, g 3 mg/kg, i 1 mg/kg, vs glucose loading only
Method: Mice fasted overnight were orally administered with glibenclamide (GLI: 10 mg/kg), a β3 agonist (compound a: 10 mg/kg; compound c: 0.3 mg/kg; compound d: 0.3 mg/kg; compound e: 3 mg/kg; compound g: 3 mg/kg; compound h: 1 mg/kg; compound i: 1 mg/kg), or GLI and a β3 agonist (compound a, compound c, compound d, compound e, compound g, compound h, and compound i) in combination (each dosage was the same as the aforementioned), and immediately glucose (1 g/kg, subcutaneous injection) was loaded. Blood was collected after 1 hour, and the amount of glucose contained in blood plasma was measured.
In this combined use, hypoglycemia, which is a side effect of glibenclamide, was not observed.

[5] = test system: Mice; experiment: Antidiabetic effect: plasma glucose in mice, insulin and β3 agonist; format: in vivo; conditions: 30 min after dosing; INS 0.2 U/kg intraperitoneal; oral compound a 10 mg/kg; c, d 0.3 mg/kg; e, g 3 mg/kg; h, i 1 mg/kg; alone or combined
Method: Mice were administered with insulin (INS: 0.2 U/kg, intraperitoneal injection), a β3 agonist (oral administration of compound a: 10 mg/kg; compound c: 0.3 mg/kg; compound d: 0.3 mg/kg; compound e: 3 mg/kg; compound g: 3 mg/kg; compound h: 1 mg/kg; compound i: 1 mg/kg, respectively), or INS and a β3 agonist (compound a, compound c, compound d, compound e, compound g, compound h, and compound i) in combination (each dosage and administration route was the same as the aforementioned), blood was collected after 30 min, and the amount of glucose contained in blood plasma was measured.

[6] = test system: human urinary bladder compression muscle; experiment: Relaxation of carbachol-contracted human urinary bladder compression muscle; format: cell-based; conditions: for relaxation of bladder compression muscle, combination with propiverine: 10^−6 M propiverine plus compound (a, b, f, g 10^−9 M; c, d 10^−10 M; e, h, i 10^−8 M); for relaxation of bladder compression muscle, combination with propiverine / relaxation of bladder compression muscle, combination with oxybutynin / relaxation of bladder compression muscle, combination with tolterodine: in comparison with each compound alone; for relaxation of bladder compression muscle, combination with oxybutynin: 10^−9 M oxybutynin plus compound (a, b, f, g 10^−9 M; c 10^−10 M; e, h, i 10^−8 M); for relaxation of bladder compression muscle, combination with tolterodine: 10^−9 M tolterodine plus compound (a, b, f, g 10^−9 M; d 10^−10 M; e, h, i 10^−8 M); for concentration at which the bladder compression muscle was significantly relaxed / concentration at which the muscle was not relaxed significantly: contraction provoked by carbachol (0.5×10^−6 M), each compound alone
[7] = test system: Mice induced with obesity by feeding with a high fat diet; experiment: Antiobestic effect (I): body weight of high fat diet obese mice, sibutramine and β3 agonist; format: in vivo; conditions: oral, 2 weeks; SIB 1 mg/kg; compound c, d 0.3 mg/kg; e, g 3 mg/kg; h, i 1 mg/kg; alone or combined at same doses
Method: as §1, with “sibutramine (SIB: 1” for “orlistat (1”, “SIB” for “orlistat”

[8] = test system: Genetically diabetic mice; experiment: Antidiabetic effect (III): genetically diabetic mice, rosiglitazone and β3 agonist; format: in vivo; conditions: oral, 2 weeks; ROS 1 mg/kg; compound c, d 0.3 mg/kg; e, g 3 mg/kg; h, i 1 mg/kg; alone or combined
Method: Genetically diabetic mice were orally administered with rosiglitazone (ROS: 1 mg/kg), a β3 agonist (compound c: 0.3 mg/kg; compound d: 0.3 mg/kg; compound e: 3 mg/kg; compound g: 3 mg/kg; compound h: 1 mg/kg; compound i: 1 mg/kg), or ROS and a β3 agonist (compound c, compound d, compound e, compound g, compound h, and compound i) in combination (each dosage was the same as the aforementioned) for 2 weeks. Blood was collected thereafter, and the amount of glucose contained in blood plasma was measured.

[9] = test system: salivation induced with pilocarpine; experiment: Mouth dryness: suppression of salivation induced with pilocarpine (method of Nagao et al.); format: in vivo
From the text: Examples of a selectable index of toxicity include mouth dryness, which is cited as a side effect of anticholinergic agents. Such mouth dryness can be measured by evaluating suppression of salivation induced with pilocarpine in accordance with the method of Nagao et al. (Folia Pharmacologica Japonica, Vol. 113, p156-166 (1999)). Further, elevation of blood pressure that is cited as a side effect of sibutramine can also be employed as an index of toxicity. Such elevation of blood pressure can be determined through use of a pressure transducer. Gastrointestinal dysfunction (fatty stool, defecation increase, abdominal pain, impending defecation desire) that is cited as a side effect of orlistat can also be employed as an index of toxicity. Such gastrointestinal dysfunction can be examined by analyzing the stool amount and the stool composition. Promotion of appetite that is cited as a side effect of insulin secretagogue can also be employed as an index of toxicity. Such promotion of appetite can be determined by observing body weight fluctuations using an animal, and hypoglycemia can be determined by investigating the concentration of glucose in blood. Loose passage that is cited as a side effect of α-glucosidase inhibitor can also be employed as an index of toxicity. Such loose passage and diarrhea can be investigated by, in the case of administration to animal, external observation of stool, or by analysis of stool amount and stool composition. Body weight gain that is cited as a side effect of insulin resistance improving agent can also be employed as an index of toxicity. Such body weight gain can be investigated by measurement of body weight after administration to animal. Gastrointestinal dysfunction that is cited as a side effect of HMG-CoA reductase inhibitor can also be employed as an index of toxicity. Such gastrointestinal dysfunction can be investigated by analysis of stool amount and stool composition. Gastrointestinal dysfunction that is cited as a side effect of clofibrate type drugs can also be employed as an index of toxicity. […]

[10] = in the condition of a reduced dosage

Row | SMILES | plasma triglyceride level [1] | blood glucose level (glucose in blood plasma) [2] | body weight [3] | blood glucose level (glucose in blood plasma) [4] | blood glucose level (glucose in blood plasma) [5] | relaxation of bladder compression muscle, combination with propiverine [6] | relaxation of bladder compression muscle, combination with oxybutynin [6] | relaxation of bladder compression muscle, combination with tolterodine [6] | concentration at which the bladder compression muscle was significantly relaxed [6] | concentration at which the muscle was not relaxed significantly [6] | body weight [7] | blood glucose level (glucose in blood plasma) [8] | suppression of salivation (mouth dryness side effect) [9, 10] | suppression of salivation (mouth dryness side effect) ([9]; in vivo)
1 | CN(C)S(=O)(=O)Nc1cc([C@@H](O)CNCCOc2ccc3c(c2)oc2ccccc23)ccc1O [compound g, (R)-N′-[5-[2-[2-(dibenzofuran-3-iloxy)ethylamino]-1-hydroxyethyl]-2-hydroxyphenyl]-N,N-dimethyl sulfonyl amide] | no difference | no difference | almost no change in body weight | almost no difference in the blood glucose level | no change in blood glucose level | relaxed significantly | relaxed significantly | relaxed significantly | 10^−7 M | 10^−9 M | almost no change in body weight | no difference in the blood glucose level | – | –
2 | CS(=O)(=O)Nc1cc([C@@H](O)CNCCOc2ccc3c(c2)[nH]c2ccccc23)ccc1Cl [compound h, (R)-N-[5-[2-[2-(9H-carbazole-2-iloxy)ethylamino]-1-hydroxyethyl]-2-chlorophenyl]methanesulfonamide] | no difference | no difference | almost no change in body weight | almost no difference in the blood glucose level | no change in blood glucose level | relaxed significantly | relaxed significantly | relaxed significantly | 10^−6 M | 10^−8 M | almost no change in body weight | no difference in the blood glucose level | – | –
3 | CS(=O)(=O)Nc1cc([C@@H](O)CNCCOc2ccc3c(c2)[nH]c2ccccc23)ccc1Br [compound i, (R)-N-[5-[2-[2-(9H-carbazole-2-iloxy)ethylamino]-1-hydroxyethyl]-2-bromophenyl]methanesulfonamide] | no difference | no difference | almost no change in body weight | almost no difference in the blood glucose level | no change in blood glucose level | relaxed significantly | relaxed significantly | relaxed significantly | 10^−6 M | 10^−8 M | almost no change in body weight | no difference in the blood glucose level | – | –
4 | CCN(CC)CC#CCOC(=O)C(O)(c1ccccc1)C1CCCCC1 (stereo not drawn) [oxybutynin, reference compound] | – | – | – | – | – | – | – | – | 10^−8 M | 10^−9 M | – | – | observed | –
5 | CCCOC(C(=O)OC1CCN(C)CC1)(c1ccccc1)c1ccccc1 [propiverine, reference compound] | – | – | – | – | – | – | – | – | 10^−5 M | 10^−6 M | – | – | observed | –
6 | Cc1ccc(O)c([C@H](CCN(C(C)C)C(C)C)c2ccccc2)c1 [tolterodine, reference compound] | – | – | – | – | – | – | – | – | 10^−8 M | 10^−9 M | – | – | – | observed
